The results in this text go back to patent US11541055B2, “Inhibitors of human immunodeficiency virus replication” (ViiV Healthcare UK (No. 5) LIMITED, priority 2018, dated 2023).

Some results are limits rather than exact numbers.

For data set [1], the system named is recombinant NL4-3 virus (Renilla luciferase) in MT-2 cells. Put plainly: HIV cell culture assay (antiviral activity, luciferase readout). It counts as cell-based. The settings on record: Renilla, NL43. On the procedure: HIV cell culture assay—MT-2 cells, 293T cells and the proviral DNA clone of NL4-3 virus were obtained from the NIH AIDS Research and Reference Reagent Program. MT-2 cells were propagated in RPMI 1640 media supplemented with 10% heat inactivated fetal bovine serum (FBS), […]. The 293T cells were propagated in DMEM media supplemented with 10% heat inactivated FBS, […] penicillin G and […] streptomycin. A recombinant NL40.3 proviral clone, in which a section of the nef gene was replaced with the Renilla luciferase gene, was used to make the reference virus used in these studies. The recombinant virus was prepared through transfection of the recombinant NL4-3 proviral clone into 293T cells using Transit-293 Transfection Reagent from Minis Bio LLC (Madison, Wis.). Supernatent was harvested after 2-3 days and the amount of virus present was titered in MT-2 cells using luciferase enzyme activity as a marker by measuring luciferase enzyme activity. Luciferase was quantitated using the EnduRen Live Cell Substrate from Promega (Madison, Wis.). Antiviral activities of compounds toward the recombinant virus were quantified by measuring luciferase activity in MT-2 cells infected for 4-5 days with the recombinant virus in the presence of serial dilutions of the compound.
The 50% effective concentration (EC50) was calculated by using the exponential form of the median effect equation where (Fa)=1/[1+(ED50/drug conc.)m] (Johnson V A, Byington R T. Infectivity Assay. In Techniques in HIV Research. ed. Aldovini A, Walker B D. 71-76. New York: Stockton Press. 1990). The 50% inhibitory concentration (EC50) was calculated by using the exponential form of the median effect equation where percent inhibition=1/[1+(EC50/drug concentration)m], where m is a parameter that reflects the slope of the concentration-response curve.

Data set [2] in a line: Compound cytotoxicity, XTT-based colorimetric assay. The settings on record: human; uninfected MT2 cells, day 4, XTT. Type of data set: cell-based. On the procedure:
Compound cytotoxicity and the corresponding CC50 values were determined using the same protocol as described in the antiviral assay except that uninfected cells were used. Cytotoxicity was assessed on day 4 in uninfected MT2 cells by using a XTT (2,3-bis[2-Methoxy-4-nitro-5-sulfophenyl]-2H-tetrazolium-5-carboxyanilide inner salt)-based colorimetric assay (Sigma-Aldrich, St Louis, Mo.).
Background: Formazan colour is commonly taken as a measure of viable cells.

As usually defined, the EC50 is the concentration at which the effect is half-maximal. The term CC50 denotes the concentration giving 50% cytotoxicity. For the compound `Cc1nccc(-c2ccc3c(=O)n(-c4ccc(Cl)c5c(NS(C)(=O)=O)nn(C)c45)c([C@H](Cc4cc(F)cc(F)c4)NC(=O)Cn4nc(C(F)F)c5c4C(F)(F)[C@@H]4C[C@H]54)nc3c2)n1` [Example 10, N—((S)-1-((3P)-3-(4-chloro-1-methyl-3-(methylsulfonamido)-1H-indazol-7-yl)-7-(2-methylpyrimidin-4-yl)-4-oxo-3,4-dihydroquinazolin-2-yl)-2-(3,5-difluorophenyl)ethyl)-2-((3bS,4aR)-3-(difluoromethyl)-5,5-difluoro-3b,4,4a,5-tetrahydro-1H-cyclopropa[3,4]cyclopenta[1,2-c]pyrazol-1-yl)acetamide], the EC50 in data set [1] was found to be 0.042 nM. The compound further yielded a CC50 at 4 days in data set [2] greater than 500 nM.

As for `CS(=O)(=O)Nc1nn(CC(F)(F)F)c2c(-n3c([C@H](Cc4cc(F)cc(F)c4)NC(=O)Cn4nc(C(F)F)c5c4C(F)(F)[C@@H]4C[C@H]54)nc4cc(-c5nccc(C(F)F)n5)ccc4c3=O)ccc(Cl)c12` (atropisomer, axis not shown) [Example 104, N-[(1S)-1-{3-[4-chloro-3-methanesulfonamido-1-(2,2,2-trifluoroethyl)-1H-indazol-7-yl]-7-[4-(difluoromethyl)pyrimidin-2-yl]-4-oxo-3,4-dihydroquinazolin-2-yl}-2-(3,5-difluorophenyl)ethyl]-2-[(2S,4R)-9-(difluoromethyl)-5,5-difluoro-7,8-diazatricyclo[4.3.0.0^2,^4]nona-1(6),8-dien-7-yl]acetamide], in data set [1], the EC50 worked out at 0.063 nM. The CC50 at 4 days in data set [2] is greater than 500 nM.

As for `Cc1cc(-c2ccc3c(=O)n(-c4ccc(Cl)c5c(NS(C)(=O)=O)nn(C)c45)c([C@H](Cc4cc(F)cc(F)c4)NC(=O)Cn4nc(C(F)F)c5c4C(F)(F)[C@@H]4C[C@H]54)nc3c2)nc(C)n1` (atropisomer, axis not shown; (P)) [Example 44, N—((S)-1-((3P)-3-(4-chloro-1-methyl-3-(methylsulfonamido)-1H-indazol-7-yl)-7-(2,6-dimethylpyrimidin-4-yl)-4-oxo-3,4-dihydroquinazolin-2-yl)-2-(3,5-difluorophenyl)ethyl)-2-((3bS,4aR)-3-(difluoromethyl)-5,5-difluoro-3b,4,4a,5-tetrahydro-1H-cyclopropa[3,4]cyclopenta[1,2-c]pyrazol-1-yl)acetamide], the EC50 in data set [1] turned out to be 0.04 nM. Moreover, the CC50 at 4 days in data set [2] is greater than 500 nM.

With `CN(c1ccccc1-c1ccc2c(=O)n(-c3ccc(Cl)c4c(NS(=O)(=O)C5CC5)nn(CC(F)F)c34)c([C@H](Cc3cc(F)cc(F)c3)NC(=O)Cn3nc(C(F)F)c4c3C(F)(F)[C@@H]3C[C@H]43)nc2c1)S(C)(=O)=O` (atropisomer, axis not shown) [Example 144], the EC50 in data set [1] is 0.18 nM. Moreover, the CC50 at 4 days in data set [2] is greater than 500 nM.

In the case of `CCc1ncncc1-c1ccc2c(=O)n(-c3ccc(Cl)c4c(NS(C)(=O)=O)nn(C)c34)c([C@H](Cc3cc(F)cc(F)c3)NC(=O)Cn3nc(C(F)F)c4c3C(F)(F)[C@@H]3C[C@H]43)nc2c1` (atropisomer, axis not shown; (P)) [Example 60, N—((S)-1-((3P)-3-(4-chloro-1-methyl-3-(methylsulfonamido)-1H-indazol-7-yl)-7-(4-ethylpyrimidin-5-yl)-4-oxo-3,4-dihydroquinazolin-2-yl)-2-(3,5-difluorophenyl)ethyl)-2-((3bS,4aR)-3-(difluoromethyl)-5,5-difluoro-3b,4,4a,5-tetrahydro-1H-cyclopropa[3,4]cyclopenta[1,2-c]pyrazol-1-yl)acetamide], the EC50 in data set [1] was 0.077 nM. The compound also showed a cytotoxic concentration (CC50) at 4 days in data set [2] greater than 500 nM.

With `CC(C)(C)S(=O)(=O)c1ccccc1-c1ccc2c(=O)n(-c3ccc(Cl)c4c(NS(=O)(=O)C5CC5)nn(CC(F)F)c34)c([C@H](Cc3cc(F)cc(F)c3)NC(=O)Cn3nc(C(F)F)c4c3C(F)(F)[C@@H]3C[C@H]43)nc2c1` (atropisomer, axis not shown) [Example 143], the concentration giving a half-maximal response (EC50) in data set [1] turned out to be 0.28 nM. Besides, in data set [2], the CC50 at 4 days is greater than 500 nM.
